Laboratory results as given in ChEMBL document CHEMBL3243959, “In vitro metabolism of a new 4-hydroxycoumarin anticoagulant. Structure of an unusual metabolite” (J Med Chem, 1977).
Activity calls are given as the source filed them. The rule behind the calls is not given here.

Assays:
Rattus norvegicus = assay: Anticoagulant activity in rat at 100 x 0.25 mg/kg, ip; type: functional, organism-based; design: dose 0.25 mg/kg
[1] = Retardation factor of the compound in 9:1 v/v dichloroethane-acetone solvent system by TLC analysis; type: physicochemical
[2] = Retardation factor of the compound in 20:3 v/v benzene-acetic acid solvent system by TLC analysis; type: physicochemical
Liver microsome [3] = assay: Drug metabolism Wistar albino rat liver microsomes assessed as formation of 6-[1-Hydroxy-2-oxo-3-[p-(2-chloroethyl)phenyl]hexylidene]-2,4-cyclohexadien-1-one at 5 umol after 30 mins by TLC analysis in presence of carbon monooxide; type: ADME; conditions: 0.5 h
[4] = Drug level in CBRI mouse liver microsomes treated with clocoumarol at 5 umol after 30 mins by TLC analysis in presence of NADPH generating system; type: ADME; conditions: 0.5 h
Liver microsome [5] = assay: Drug level in Wistar albino rat liver microsomes treated with clocoumarol at 5 umol after 30 mins TLC analysis in presence of NADPH generating system; type: ADME; conditions: 0.5 h
[6] = Drug level in Duncan-Hartley guinea pig liver microsomes treated with clocoumarol at 5 umol after 30 mins by TLC analysis in presence of NADPH generating system; type: ADME, Cavia porcellus; conditions: 0.5 h
Liver microsome [7] = assay: Drug level in Wistar albino rat liver microsomes treated with clocoumarol at 5 umol after 30 mins by TLC analysis in presence of NADP/NAD/NADH/oxygen; type: ADME; conditions: 0.5 h
Liver microsome [8] = assay: Drug level in Wistar albino rat washed liver microsomal fraction treated with clocoumarol at 5 umol after 30 mins by TLC analysis; type: ADME; conditions: microsomes, 0.5 h
[9] = Retardation factor of the compound in 9:1 v/v benzene-ethyl acetate solvent system by TLC analysis; type: physicochemical
[10] = Drug metabolism in CBRI mouse liver microsomes assessed as formation of 6-[1-Hydroxy-2-oxo-3-[p-(2-chloroethyl)phenyl]hexylidene]-2,4-cyclohexadien-1-one at 5 umol after 30 mins by TLC analysis in presence of NADPH generating system; type: ADME; conditions: 0.5 h
[11] = Drug metabolism in Wistar albino rat mitochondrial fraction assessed as formation of 6-[1-Hydroxy-2-oxo-3-[p-(2-chloroethyl)phenyl]hexylidene]-2,4-cyclohexadien-1-one at 5 umol after 30 mins by TLC analysis; type: ADME, Mitochondria; conditions: 0.5 h
Liver microsome [12] = assay: Drug metabolism in Wistar albino rat liver soluble microsomal fraction assessed as formation of 6-[1-Hydroxy-2-oxo-3-[p-(2-chloroethyl)phenyl]hexylidene]-2,4-cyclohexadien-1-one; type: ADME; conditions: microsomes
Liver microsome [13] = assay: Drug metabolism in Wistar albino rat liver microsomes assessed as formation of 6-[1-Hydroxy-2-oxo-3-[p-(2-chloroethyl)phenyl]hexylidene]-2,4-cyclohexadien-1-one at 5 umol after 30 mins by TLC analysis in presence of nitrogen; type: ADME; conditions: 0.5 h
Liver microsome [14] = assay: Drug metabolism in Wistar albino rat washed liver microsomal fraction assessed as formation of 6-[1-Hydroxy-2-oxo-3-[p-(2-chloroethyl)phenyl]hexylidene]-2,4-cyclohexadien-1-one at 5 umol after 30 mins by TLC analysis; type: ADME; conditions: microsomes, 0.5 h
Liver microsome [15] = assay: Drug metabolism in Wistar albino rat liver microsomes assessed as formation of 6-[1-Hydroxy-2-oxo-3-[p-(2-chloroethyl)phenyl]hexylidene]-2,4-cyclohexadien-1-one at 5 umol after 30 mins by TLC analysis in presence of NADP/NAD/NADH/oxygen; type: ADME; conditions: 0.5 h
[16] = Drug metabolism in Wistar albino rat liver nuclear fraction assessed as formation of 6-[1-Hydroxy-2-oxo-3-[p-(2-chloroethyl)phenyl]hexylidene]-2,4-cyclohexadien-1-one at 5 umol after 30 mins by TLC analysis; type: ADME; conditions: 0.5 h
[17] = Drug metabolism in Duncan-Hartley guinea pig liver microsomes assessed as formation of 6-[1-Hydroxy-2-oxo-3-[p-(2-chloroethyl)phenyl]hexylidene]-2,4-cyclohexadien-1-one at 5 umol after 30 mins by TLC analysis in presence of NADPH generating system; type: ADME, Cavia porcellus; conditions: 0.5 h

Drug metabolism (Liver microsome [3]) | Drug metabolism [4] | Drug metabolism (Liver microsome [5]) | Drug metabolism [6] | Drug metabolism (Liver microsome [7]) | Drug metabolism (Liver microsome [8]) | SMILES | Activity (Rattus norvegicus) | Rf [1] | Rf [2] | Rf [9] | Drug metabolism [10] | Drug metabolism [11] | Drug metabolism (Liver microsome [12]) | Drug metabolism (Liver microsome [13]) | Drug metabolism (Liver microsome [14]) | Drug metabolism (Liver microsome [15]) | Drug metabolism [16] | Drug metabolism [17]
metabolite_notdetected | metabolite_detected | metabolite_detected | metabolite_detected | metabolite_detected | metabolite_detected | CCCC(C(=O)/C(O)=C1\C=CC=CC1=O)c1ccc(CCCl)cc1 (stereo unspecified) | inactive | 0.61 | 0.74 | 0.44 |  |  |  |  |  |  |  | 
 |  |  |  |  |  | CCCC(c1ccc(CCCl)cc1)c1c(O)c2ccccc2oc1=O (stereo unspecified) [CLOCOUMAROL] |  | 0.53 | 0.67 | 0.33 | metabolite_detected | metabolite_notdetected | metabolite_notdetected | metabolite_notdetected | metabolite_detected | metabolite_detected | metabolite_notdetected | metabolite_detected
